This is an account of results in US12234221B2, “Pyridine carboxamide compounds for inhibiting NAV1.8” (Lieber Institute, Inc., priority 2018, dated 2025).

Some results are limits rather than exact numbers.

For the assay, the target named is T1, human Nav1.8 (hNav1.8) ion channel (Homo sapiens, UniProt Q9Y5Y9).
T1 construct: expressed in transfected cells; host or cells: HEK293
As to the kind of experiment: Nav1.8 channel inhibition, estimated IC50 (one or more of: fluorescence inhibition assay, PatchXpress, IonFlux HT automated patch clamp). The class given is cell-based. Conditions: HEK293 cells stably expressing hNav1.8; method used per compound not stated; read-out: Activity range (estimated IC50). Here is the method: The ability of pyridine carboxamide derivatives exemplified above to inhibit the Nav1.8 channel was determined using one or more of the methods described below.
HEK Nav1.8 β1/β2 Stably Expressing Cell Line
A HEK293 cell line stably expressing the human Nav1.8 (hNav1.8) ion channel with β1/β2 subunits was constructed. The cell line is suitable for IC50 determination in fluorescence and electrophysiological based assays. It is also suitable to form mechanism of action pharmacology studies in electrophysiological assays. HEK293 Nav 1.8 cells are grown as adherent monolayers in DMEM/high glucose media, 10% fetal bovine serum, Na pyruvate (2 mM), Hepes (10 mM) with selection agents G418 (400 mg/L) and puromycin (0.5 mg/L) at 37 degrees C., 10% CO2.
Nav 1.8 Fluorescence Inhibition Assay
Compounds were made up to or supplied as a 10-mM stock solution using DMSO as the vehicle. Concentration-response curves were generated using a Matrix multichannel pipettor. Compound source plates were made by diluting 10 mM compound stocks to create 500 μM (100×) solutions in DMSO in 96-well v-bottom plates. Compounds were then serially diluted in 100% DMSO to generate a 5 point, 4-fold dilution scheme dose response curve. 2 μL of the 100× dose response curves was then added to preincubation and stimulation assay plates. 100 μL of pre-incubation buffer and 200 μL of stimulation buffer were then added to the plates resulting in a final assay test concentration range of 5 μM to 0.02 μM with a final DMSO concentration of 1%.
On the day of assay, plates were washed to remove cell culture media using 2K EBSS buffer (135 mM NaCl, 2 mM KCl, 5 mM Glucose, 2 mM CaCl2), 1 mM MgCl2, 10 mM HEPES, pH 7.4). The Na-sensitive fluorescent dye, Asante Natrium Green-2 (ANG-2) is incubated for 60 min to allow equilibration and then washed with 2K EBSS. Plates are the transferred to a fluorescence plate reader (FLIPR™, Molecular Devices) for fluorescence measurement using an excitation wavelength of 490 nm and an emission wavelength of 565 nm. Compounds are pre-incubated at for 5 min at final test concentration in the presence of ouabain (30 μM) to inhibit Na+ efflux through Na+/K+ exchanger. Following the pre-incubation phase, hNav1.8 channels are stimulated with 10 μM of the pyrethroid deltamethrin to prevent channel inactivation. The assay was run for 15 min with vehicle and 30 μM tetracaine serving as negative and positive controls, respectively. The peak change in fluorescence relative to negative and positive control wells was calculated and fit with a logistic equation to determine IC50.
PatchXpress Nav 1.8 Inhibition Assay
HEK-Nav1.8 β1/β2 cells were recorded in whole cell patch-clamp using the PatchXpress automated patch clamp platforms (Molecular Devices). Cells suspensions were obtained by trypsinization of adherent monolayers, followed by gentle rocking for minimally 30 min. Compounds were prepared from 10 mM DMSO stocks.
Nav1.8 channel variants were evaluated using Protocol 1 (FIG. 2) in which cells were initially voltage clamped at a holding potential of −100 mV to maintain Nav1.8 in a closed resting state. After current amplitude becomes stable, the mid-point voltage of steady state inactivation was determined for each cell using a series of 5 sec conditioning steps to increasingly depolarized voltages (−100 to 0 mV) The holding potential was then reset to a voltage that produces ˜50% inactivation (Vhalf−set automatically via PatchXpress scripts) so that closed and inactivated channel inhibition can be assessed. Protocol 1 was run at a frequency of 0.1 Hz until current amplitude is steady (automatically determined by PatchXpress scripts). The effect of test reagent on Nav current amplitude was monitored using custom PatchXpress stability scripts which determines the timing of compound addition and washout. Data were processed and analyzed using DataXpress 2.0 (Molecular Devices). […]

T1 sequence (Q9Y5Y9 whole entry): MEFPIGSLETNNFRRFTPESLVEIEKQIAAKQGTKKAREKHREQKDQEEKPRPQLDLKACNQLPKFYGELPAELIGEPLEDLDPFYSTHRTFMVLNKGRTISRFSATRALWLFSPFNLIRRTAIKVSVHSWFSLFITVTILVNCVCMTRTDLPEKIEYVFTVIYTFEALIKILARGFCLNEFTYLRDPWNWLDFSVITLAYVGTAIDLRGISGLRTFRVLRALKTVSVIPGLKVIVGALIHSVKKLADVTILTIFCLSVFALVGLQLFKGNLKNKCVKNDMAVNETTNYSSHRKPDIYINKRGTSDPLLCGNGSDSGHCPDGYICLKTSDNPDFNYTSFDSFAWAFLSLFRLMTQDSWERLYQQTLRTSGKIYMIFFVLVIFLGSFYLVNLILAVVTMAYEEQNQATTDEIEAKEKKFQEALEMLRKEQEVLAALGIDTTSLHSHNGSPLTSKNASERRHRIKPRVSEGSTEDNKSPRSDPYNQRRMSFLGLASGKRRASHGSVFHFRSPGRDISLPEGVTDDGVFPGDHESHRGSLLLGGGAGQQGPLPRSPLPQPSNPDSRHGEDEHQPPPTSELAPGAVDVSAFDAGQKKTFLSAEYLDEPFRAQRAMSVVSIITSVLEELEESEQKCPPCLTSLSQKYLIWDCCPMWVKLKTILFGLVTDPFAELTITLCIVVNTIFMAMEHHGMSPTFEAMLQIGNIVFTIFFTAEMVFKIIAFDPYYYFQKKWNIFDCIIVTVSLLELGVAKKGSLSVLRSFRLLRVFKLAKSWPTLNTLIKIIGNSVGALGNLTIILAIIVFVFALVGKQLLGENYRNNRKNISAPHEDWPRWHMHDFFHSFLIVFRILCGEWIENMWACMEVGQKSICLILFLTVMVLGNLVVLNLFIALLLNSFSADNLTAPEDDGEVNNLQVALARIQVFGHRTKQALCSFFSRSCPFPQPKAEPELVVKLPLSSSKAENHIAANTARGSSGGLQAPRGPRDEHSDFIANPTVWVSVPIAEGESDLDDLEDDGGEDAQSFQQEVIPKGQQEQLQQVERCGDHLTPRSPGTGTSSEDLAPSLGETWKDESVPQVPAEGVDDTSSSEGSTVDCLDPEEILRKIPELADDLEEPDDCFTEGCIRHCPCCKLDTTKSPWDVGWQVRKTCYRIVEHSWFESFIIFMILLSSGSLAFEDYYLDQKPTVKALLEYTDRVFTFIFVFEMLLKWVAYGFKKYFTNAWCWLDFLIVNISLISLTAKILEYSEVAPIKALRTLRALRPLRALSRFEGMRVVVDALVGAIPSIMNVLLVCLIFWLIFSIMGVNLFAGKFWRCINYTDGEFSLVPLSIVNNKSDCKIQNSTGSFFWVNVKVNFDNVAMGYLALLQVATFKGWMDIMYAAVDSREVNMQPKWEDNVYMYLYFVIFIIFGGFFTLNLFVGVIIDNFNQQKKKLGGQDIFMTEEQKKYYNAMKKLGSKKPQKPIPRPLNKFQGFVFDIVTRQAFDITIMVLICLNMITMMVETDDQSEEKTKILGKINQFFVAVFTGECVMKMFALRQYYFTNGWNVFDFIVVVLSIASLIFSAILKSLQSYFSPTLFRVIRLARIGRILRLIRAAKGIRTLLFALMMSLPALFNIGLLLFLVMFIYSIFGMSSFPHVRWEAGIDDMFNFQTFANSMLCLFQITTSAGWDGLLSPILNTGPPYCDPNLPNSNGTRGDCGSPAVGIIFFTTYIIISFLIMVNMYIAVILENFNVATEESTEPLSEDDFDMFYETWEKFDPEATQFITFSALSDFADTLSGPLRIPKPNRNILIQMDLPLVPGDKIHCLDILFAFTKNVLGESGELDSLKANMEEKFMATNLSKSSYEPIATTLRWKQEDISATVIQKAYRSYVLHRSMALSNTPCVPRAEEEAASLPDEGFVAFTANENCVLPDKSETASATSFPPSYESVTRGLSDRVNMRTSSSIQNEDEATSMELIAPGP

What is called IC50 is the concentration that gives 50% inhibition. Turning to `COc1cc(C)ccc1Oc1ncc(C(F)(F)F)cc1C(=O)Nc1cccc(S(C)(=O)=O)c1` [Example 25, 2-(2-methoxy-4-methyl-phenoxy)-N-(3-methylsulfonylphenyl)-5-(trifluoromethyl)pyridine-3-carboxamide], the IC50 is greater than 1000 nM.
Next, `COc1cc(Cl)ccc1Oc1ncc(C(F)(F)F)cc1C(=O)Nc1cccc(S(C)(=O)=O)c1` [Example 26, 2-(4-chloro-2-methoxy-phenoxy)-N-(3-methylsulfonylphenyl)-5-(trifluoromethyl)pyridine-3-carboxamide]: less than 500 nM; `CC(C)Oc1ccccc1Oc1ncc(C(F)(F)F)cc1C(=O)Nc1cccc(S(C)(=O)=O)c1` [Example 27, 2-(2-isopropoxyphenoxy)-N-(3-methylsulfonylphenyl)-5-(trifluoromethyl)pyridine-3-carboxamide]: greater than 1000 nM; `Cc1cccc(C)c1Oc1ncc(C(F)(F)F)cc1C(=O)Nc1cccc(S(C)(=O)=O)c1` [Example 33, 2-(2,6-dimethylphenoxy)-N-(3-methylsulfonylphenyl)-5-(trifluoromethyl)pyridine-3-carboxamide]: greater than 1000 nM.
Next, `CS(=O)(=O)c1cccc(NC(=O)c2cc(C(F)(F)F)cnc2Oc2ccc(F)cc2)c1` [Example 34, 2-(4-fluorophenoxy)-N-(3-methylsulfonyl-phenyl)-5-(trifluoromethyl)pyridine-3-carboxamide]: greater than 1000 nM.
The figure for `COc1cc(F)ccc1Oc1ncc(C(F)(F)F)cc1C(=O)Nc1cccc(S(C)(=O)=O)c1` [Example 35, 2-(4-fluoro-2-methoxy-phenoxy)-N-(3-methylsulfonyl-phenyl)-5-(trifluoromethyl)pyridine-3-carboxamide] is less than 500 nM; for `CS(=O)(=O)c1cccc(NC(=O)c2cc(C(F)(F)F)cnc2Oc2ccc(F)cc2Cl)c1` [Example 36, 2-(2-chloro-4-fluoro-phenoxy)-N-(3-methylsulfonyl-phenyl)-5-(trifluoromethyl)pyridine-3-carboxamide] it is less than 500 nM; for `Cc1cc(OC(F)(F)F)ccc1Oc1ncc(C(F)(F)F)cc1C(=O)Nc1cccc(S(C)(=O)=O)c1` [Example 37, N-(3-methylsulfonyl-phenyl)-2-[2-methyl-4-(trifluoromethoxy)phenoxy]-5-(trifluoromethyl)pyridine-3-carboxamide] it is less than 500 nM.
For `CS(=O)(=O)c1cccc(NC(=O)c2cc(C(F)(F)F)cnc2Oc2ccc(OC(F)(F)F)cc2)c1` [Example 38, N-(3-methylsulfonyl-phenyl)-2-[4-(trifluoromethoxy)phenoxy]-5-(trifluoromethyl)pyridine-3-carboxamide], the IC50 is less than 500 nM.
For `CS(=O)(=O)c1cccc(NC(=O)c2cc(C(F)(F)F)cnc2Oc2ccc(OC(F)F)cc2)c1` [Example 39, 2-[4-(difluoromethoxy)phenoxy]-N-(3-methylsulfonyl-phenyl)-5-(trifluoromethyl)pyridine-3-carboxamide], the IC50 is less than 500 nM.
Turning to `CS(=O)(=O)c1cccc(NC(=O)c2cc(C(F)(F)F)cnc2Oc2ccc(OC(F)(F)F)c(F)c2)c1` [Example 40, 2-[3-fluoro-4-(trifluoromethoxy)phenoxy]-N-(3-methylsulfonyl-phenyl)-5-(trifluoromethyl)pyridine-3-carboxamide], the IC50 was less than 500 nM.
Turning to `CS(=O)(=O)c1cccc(NC(=O)c2cc(C(F)(F)F)cnc2Oc2ccccc2)c1` [Example 41, N-(3-methylsulfonyl-phenyl)-2-phenoxy-5-(trifluoromethyl)pyridine-3-carboxamide], the IC50 is greater than 1000 nM.
Next, `CS(=O)(=O)c1cccc(NC(=O)c2cc(C(F)(F)F)cnc2Oc2cccc(F)c2)c1` [Example 42, 2-(3-fluorophenoxy)-N-(3-methylsulfonyl-phenyl)-5-(trifluoromethyl)pyridine-3-carboxamide]: 500 to 1000 nM.
With `CS(=O)(=O)c1cccc(NC(=O)c2cc(C(F)(F)F)cnc2Oc2cc(F)ccc2F)c1` [Example 43, 2-(2,5-difluorophenoxy)-N-(3-methylsulfonyl-phenyl)-5-(trifluoromethyl)pyridine-3-carboxamide], the IC50 was 500 to 1000 nM.
The figure for `Cc1ccc(Oc2ncc(C(F)(F)F)cc2C(=O)Nc2cccc(S(C)(=O)=O)c2)cc1` [Example 44, 2-(4-methylphenoxy)-N-(3-methylsulfonyl-phenyl)-5-(trifluoromethyl)pyridine-3-carboxamide] is greater than 1000 nM; for `CS(=O)(=O)c1cccc(NC(=O)c2cc(C(F)(F)F)cnc2Oc2cc(F)cc(Cl)c2)c1` [Example 45, 2-(3-chloro-5-fluoro-phenoxy)-N-(3-methylsulfonyl-phenyl)-5-(trifluoromethyl)pyridine-3-carboxamide] it is greater than 1000 nM; for `CC(C)c1ccccc1Oc1ncc(C(F)(F)F)cc1C(=O)Nc1cccc(S(C)(=O)=O)c1` [Example 46, 2-(2-isopropylphenoxy)-N-(3-methylsulfonyl-phenyl)-5-(trifluoromethyl)pyridine-3-carboxamide] it is less than 500 nM.
Next, `CS(=O)(=O)c1cccc(NC(=O)c2cc(C(F)(F)F)cnc2Oc2ccc(F)c(F)c2)c1` [Example 47, 2-(3,4-difluorophenoxy)-N-(3-methylsulfonyl-phenyl)-5-(trifluoromethyl)pyridine-3-carboxamide]: less than 500 nM; `CS(=O)(=O)c1cccc(NC(=O)c2cc(C(F)(F)F)cnc2Oc2ccc(F)cc2F)c1` [Example 48, 2-(2,4-difluorophenoxy)-N-(3-methylsulfonyl-phenyl)-5-(trifluoromethyl)pyridine-3-carboxamide]: less than 500 nM.
The figure for `CS(=O)(=O)c1cccc(NC(=O)c2cc(C(F)(F)F)cnc2Oc2cc(F)cc(F)c2)c1` [Example 49, 2-(3,5-difluorophenoxy)-N-(3-methylsulfonyl-phenyl)-5-(trifluoromethyl)pyridine-3-carboxamide] is greater than 1000 nM; for `CS(=O)(=O)c1cccc(NC(=O)c2cc(C(F)(F)F)cnc2Oc2ccc(OCC(F)(F)F)cc2)c1` [Example 50, N-(3-methylsulfonyl-phenyl)-2-[4-(2,2,2-trifluoroethoxy)phenoxy]-5-(trifluoromethyl)pyridine-3-carboxamide] it is less than 500 nM; for `CS(=O)(=O)c1cccc(NC(=O)c2cc(C(F)(F)F)cnc2Oc2ccc(SC(F)(F)F)cc2)c1` [Example 51, N-(3-methylsulfonyl-phenyl)-5-(trifluoromethyl)-2-[4-(trifluoromethyl-sulfanyl)phenoxy]pyridine-3-carboxamide] it is less than 500 nM.
Take `CN(C)c1ccccc1Oc1ncc(C(F)(F)F)cc1C(=O)Nc1cccc(S(C)(=O)=O)c1` [Example 52, 2-[2-(dimethylamino)phenoxy]-N-(3-methylsulfonyl-phenyl)-5-(trifluoromethyl)pyridine-3-carboxamide]: the IC50 was 500 to 1000 nM.
The figure for `CS(=O)(=O)c1cccc(NC(=O)c2cc(C(F)(F)F)cnc2Oc2ccccc2C(F)(F)F)c1` [Example 53, N-(3-methylsulfonyl-phenyl)-5-(trifluoromethyl)-2-[2-(trifluoromethyl)phenoxy]pyridine-3-carboxamide] is less than 500 nM; for `COc1ccc(Oc2ncc(C(F)(F)F)cc2C(=O)Nc2cccc(S(C)(=O)=O)c2)c(OC)c1` [Example 54, 2-(2,4-dimethoxyphenoxy)-N-(3-methylsulfonyl-phenyl)-5-(trifluoromethyl)pyridine-3-carboxamide] it is less than 500 nM; for `CS(=O)(=O)c1cccc(NC(=O)c2cc(C(F)(F)F)cnc2Oc2cc(F)c(F)c(F)c2)c1` [Example 55, N-(3-methylsulfonyl-phenyl)-5-(trifluoromethyl)-2-(3,4,5-trifluorophenoxy)pyridine-3-carboxamide] it is 500 to 1000 nM.
